# Assay results: patent publication US20240285638A1, “METHODS FOR TREATING FACIOSCAPULOHUMERAL MUSCULAR DYSTROPHY (FSHD)” (RESEARCH INSTITUTE AT NATIONWIDE CHILDREN'S HOSPITAL, priority 2021, published 2024)
# Experiments:
# [1] = tested on: human myoblasts expressing DUX4; test: Caspase-3/7 activation assay in human myoblasts transfected with DUX4, with or without inhibitor; assay type: cell-based; settings: inhibitor added 1.5 hours later, increasing concentrations, caspase assay 48 hours later, FIGS. 6A-B
# Description: HEK293 cells were transfected with 100 ng plasmid DNA (65,000 cells/well) using Lipofectamine 2000 and assays were performed 48 hours later using the Apo-ONE Homogeneous Caspase-3/7 Assay (Promega). The protocol was followed according to the manufacturer's instructions. Briefly, 100 μl of the reagent was added to each well and the 96-well plate was gently rotated for 20 min. Relative fluorescence was monitored every hour for 4-6 hours. Inhibitor studies were performed in human myoblasts which were transfected with 100 ng of DUX4 DNA (65,000 cells/well) with Lipofectamine 2000. The inhibitors adenosine dialdehyde or salvianolic acid A were added 1.5 hours later and a caspase assay was performed 48 hours later as above. The observation that a DUX4 arginine methylation null mutant protects from cell death and DUX4 interacts with an arginine methyltransferase indicate a role for arginine methylation inhibitors as protective in FSHD disease models. Thus, the global methylation inhibitor, adenosine dialdehyde (AdOx)^17, and the PRMT1 inhibitor, salvianolic acid A (SAA)^18 were tested for their ability to protect against DUX4-mediated cell death. The caspase assay was performed in human myoblasts expressing DUX4 in the presence or absence of AdOx or SAA.
# DUX4 [2] = test: DUX4 biomarker and target gene expression in muscle of FSHD mouse model (TIC-DUX4) after IM or IV injection; assay type: in vivo
# Description: SAA and AdOx, or derivatives thereof, as described herein, are each injected into a FSHD mouse model (TIC-DUX4) or any other mouse model of FSHD mice intramuscularly (IM) or intravenously (IV). After 4, 8, 12, 16, 20, and 24 weeks, the ? DUX4, a DUX4 biomarker, such as Wfdc3 or Trim36, and DUX4 target gene expression are measured by qRT-PCR, RNAscope, or ddPCR.
# DUX4 [3] = test: DUX4-activated biomarkers and target genes in biopsied muscle of FSHD patients after IM or IV injection; assay type: in vivo, human
# Description: SAA and AdOx, or derivatives thereof, as described herein, are injected into patients suffering from FSHD intramuscularly (IM) or intravenously (IV). Prior to treatment and after 4, 8, 12, 16, 20, 24, 28, 32, 36 40, 44, 48, and 52 weeks, DUX4-activated biomarkers and/or DUX4 target genes in muscle of the patients are measured in biopsied muscle as described herein.
smiles,measurement,setting,value
"O=C(/C=C/c1ccc(O)c(O)c1/C=C/c1ccc(O)c(O)c1)O[C@H](Cc1ccc(O)c(O)c1)C(=O)O [SAA, salvianolic acid A]",caspase cleavage (DUX4-mediated cell death),[1],decreased caspase cleavage in a dose-responsive manner
same,DUX4 biomarker expression in muscle (Wfdc3 or Trim36),"DUX4 [2]; IM or IV, 4-24 weeks, vs untreated mice",Reduced levels of DUX4 biomarker expression
same,"expression of DUX4 target genes PRAMEF12, ZSCAN4, TRIM43, LEUTX","DUX4 [2]; IM or IV, vs untreated mice",decreased expression of DUX4 target genes
same,"muscle strength, morphology, ambulation and motor function",DUX4 [2]; treated mice,"improved muscle strength, morphology, and overall ambulation and motor function"
same,FSHD disease symptoms,DUX4 [3],Improvement in FSHD disease symptoms
same,expression levels of DUX4-activated biomarkers and/or DUX4 target genes in muscle,"DUX4 [3]; 4-52 weeks, vs same patients prior to treatment",Reduced expression levels of DUX4-activated biomarkers and/or DUX4 target genes
